Experimental findings from US20240327417A1, “HETEROCYCLIC COMPOUNDS” (BeiGene Switzerland GmbH, priority 2021, published 2024) are described below.

In test [1] the target is T1, Full length DGKα (D21-10BG, SignalChem) (Homo sapiens, UniProt P23743).
T1 construct: Full length DGKα (D21-10BG, SignalChem); purchased SignalChem D21-10BG
Nature of the test: Biochemical DGK IC50 assay (ADP-Glo, lipid micelle substrate), DGKα. To be noted: 7.5 nM enzyme, 140 μM ATP, 80 μM DAG, 1 hour preincubation, 1 hour reaction, room temperature, read-out: IC50s for DGKα. On the procedure: (§1) Enzymatic reactions of DGKζ, DGKα and DGKδ were performed using ADP-Glo assay with lipid micelle substrate. […] Full length DGKα (D21-10BG, SignalChem) and full length DGKδ (D23-10G, SignalChem) were purchased. Lipid micelle was prepared by dissolving DAG (Sigma, 317505-10MG) and PS (Sigma, P7769-100MG) with chloroform which was firtherly removed by rotary evaporation. The obtained residue was resuspended in buffer containing 25 mM HEPES pH 7.0, 0.5 mM EDTA and 160 mM Octyl β-D glucopyranoside by vigorous mixing and ultrasonic (IID, Scientz).
(§2) The inhibition activities testing for the compound disclosed herein were carried out at room temperature in assay buffer containing 50 mM HEPES, 10 mM MgCl2, 0.01% BSA, 0.1 mM Na3VO4, 0.005% Tween-20 and 0.01 mM CaCl2. Compounds in DMSO were dispensed into wells of a black 384 well plate (Corning 4514) using D300e digital dispenser (Tecan). The ranges of compounds final concentration were 1.55˜10000 nM or 23.3˜150000 nM. 3 μL 2× enzyme solution was added to wells. […] After 1 hour reaction, 5 μL ADP-Glo reagent (Promga V9101) was added and incubated for 40 minutes. 10 μL Kinase Detection reagent was added and incubated for 30 minutes. Luminescence was measured on a microplate reader (PHERAstar FSX, BMG labtech). The IC50s are calculated based on inhibition of enzyme activity in the presence of increasing concentrations of compounds.

Test [2] concerns the target T2, Full length DGKζ (in-house protein M1-V929) (Homo sapiens, UniProt Q13574).
T2 construct: His (N); TEV cleavage site (N); made in house; host or cells: Sf9 insect cells (baculovirus, Bac-to-Bac)
Briefly: Biochemical DGK IC50 assay (ADP-Glo, lipid micelle substrate), DGKζ. Particulars: 0.5 nM enzyme, 140 μM ATP, 80 μM DAG, 1 hour preincubation, 1 hour reaction, room temperature, read-out: IC50s for DGKζ. On the procedure: as §1, §2
Human His-TEV-DGK-zeta-pFastBac1 and human baculovirus samples was generated using the Bac-to-Bac baculovirus expression system (Invitrogen) according to the manufacturer's protocol. The DNA used for expression of DGK-zeta, have SEQ ID Nos: 1. Baculovirus amplification was achieved using infected SF9 cells at 1:2000 virus/cells ratios, and grown for 96 hours at 27° C. post-transfected.
The expression scaled up for each protein was carried out in the […] from CORNING. 4 L of 3×10^6 cells/mL Sf9 cells (Expression System, Invitrogen) grown in SF900™ II SFM insect medium (Expression System) was infected with virus stock at 1:200 virus/cells ratio, and grown for 48 hours at 27° C. post-transfection. The infected cell culture was harvested by centrifugation at 6000 rpm for 15 min 4° C. in a SORVALL LYNX6000 centrifuge. The cell pellets were stored at −80° C.
Full length human DGKζ produced as described above, was purified from Sf9 baculovirus-infected insect cell paste. The cells were lysed using sonication method, and the lysates were clarified by centrifugation.
(In general: ADP-Glo first removes unused ATP, then detects ADP through luciferase.)

T2 sequence (Q13574 1-929 isoform Q13574-4): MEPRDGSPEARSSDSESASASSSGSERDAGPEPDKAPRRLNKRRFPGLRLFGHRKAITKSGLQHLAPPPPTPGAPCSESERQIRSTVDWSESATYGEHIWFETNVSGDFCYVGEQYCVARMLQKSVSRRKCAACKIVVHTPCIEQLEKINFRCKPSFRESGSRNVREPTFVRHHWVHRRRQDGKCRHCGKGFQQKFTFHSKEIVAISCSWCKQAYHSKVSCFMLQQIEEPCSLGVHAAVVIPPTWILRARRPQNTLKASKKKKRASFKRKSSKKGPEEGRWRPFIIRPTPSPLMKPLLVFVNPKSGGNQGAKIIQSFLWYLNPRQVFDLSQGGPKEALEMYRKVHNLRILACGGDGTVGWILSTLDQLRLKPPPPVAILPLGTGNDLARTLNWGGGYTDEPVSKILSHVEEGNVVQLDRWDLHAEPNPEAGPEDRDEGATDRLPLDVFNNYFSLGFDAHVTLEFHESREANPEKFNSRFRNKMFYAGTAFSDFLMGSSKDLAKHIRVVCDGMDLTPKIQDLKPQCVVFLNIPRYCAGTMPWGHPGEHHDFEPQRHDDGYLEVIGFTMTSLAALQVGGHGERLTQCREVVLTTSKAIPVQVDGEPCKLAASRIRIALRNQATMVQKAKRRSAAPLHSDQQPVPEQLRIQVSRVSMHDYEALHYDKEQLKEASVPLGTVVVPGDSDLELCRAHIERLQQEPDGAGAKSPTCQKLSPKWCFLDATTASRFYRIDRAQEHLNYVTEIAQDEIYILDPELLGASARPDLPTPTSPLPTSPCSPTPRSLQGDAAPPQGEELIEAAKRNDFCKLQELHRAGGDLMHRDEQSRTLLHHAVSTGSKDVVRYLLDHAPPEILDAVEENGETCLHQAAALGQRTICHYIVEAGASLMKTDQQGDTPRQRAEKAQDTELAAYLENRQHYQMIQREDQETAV
T1 sequence (P23743 whole entry): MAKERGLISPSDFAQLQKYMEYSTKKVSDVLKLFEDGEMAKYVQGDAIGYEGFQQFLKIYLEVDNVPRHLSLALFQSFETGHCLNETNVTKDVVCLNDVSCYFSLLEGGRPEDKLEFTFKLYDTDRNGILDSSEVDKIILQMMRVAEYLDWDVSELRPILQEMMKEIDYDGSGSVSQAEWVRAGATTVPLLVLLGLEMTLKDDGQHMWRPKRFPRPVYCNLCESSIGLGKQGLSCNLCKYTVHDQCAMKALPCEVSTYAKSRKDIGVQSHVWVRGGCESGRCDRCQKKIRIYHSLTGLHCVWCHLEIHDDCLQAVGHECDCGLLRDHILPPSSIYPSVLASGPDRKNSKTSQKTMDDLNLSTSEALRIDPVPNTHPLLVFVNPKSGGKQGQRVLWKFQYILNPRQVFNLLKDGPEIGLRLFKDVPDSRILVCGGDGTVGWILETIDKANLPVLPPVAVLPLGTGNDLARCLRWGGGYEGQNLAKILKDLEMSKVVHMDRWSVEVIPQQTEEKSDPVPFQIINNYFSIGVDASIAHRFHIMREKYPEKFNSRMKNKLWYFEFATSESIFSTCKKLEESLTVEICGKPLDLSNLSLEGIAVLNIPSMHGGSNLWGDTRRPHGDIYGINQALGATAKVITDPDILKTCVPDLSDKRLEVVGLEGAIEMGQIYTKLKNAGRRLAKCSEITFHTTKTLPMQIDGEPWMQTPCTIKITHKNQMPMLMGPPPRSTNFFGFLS

For the compound `CC[C@H]1CN(C(C)c2ccc3scnc3c2F)[C@H](CC)CN1c1cc(=O)n(C)n2cc(CC#N)nc12` (single isomer, unassigned) [Compound A66b], the IC50 was found to be 1640 nM in test [1] and 1440 nM in test [2].
For `CC#CCc1cn2c(n1)c(N1C[C@@H](CC)N(C(C)c3ccc4nc(C)sc4c3)C[C@@H]1CC)cc(=O)n2C` (single isomer, unassigned) [Compound A68a], in that order: 26 nM and 104 nM.
Regarding `CC#CCc1cn2c(n1)c(N1C[C@@H](CC)N(C(C)c3ccc4nc(C)sc4c3)C[C@@H]1CC)cc(=O)n2C` (single isomer, unassigned) [Compound A68b], the IC50 in test [1] is 527 nM; in test [2], greater than 10000 nM.
`CC[C@H]1CN(C(C)c2ccc(C3CC3(F)F)nc2)[C@H](CC)CN1c1cc(=O)n(C)n2cc(CC#N)nc12` (single isomer, unassigned) [Compound A70a]: the IC50 was found to be 102 nM in test [1] and 244 nM in test [2].
Take `CC[C@H]1CN(C(C)c2ccc(C3CC3(F)F)nc2)[C@H](CC)CN1c1cc(=O)n(C)n2cc(CC#N)nc12` (single isomer, unassigned) [Compound A70b]: the values for the IC50 in test [1] and in test [2] were 466 nM and 886 nM, respectively.
As for `CC[C@H]1CN(C(C)c2ccc(C3CC3)nc2)[C@H](CC)CN1c1c(F)c(=O)n(C)n2cc(CC#N)nc12` (single isomer, unassigned) [Compound A73a], the values for the IC50 in test [1] and in test [2] were 177 nM and 77 nM, respectively.
Consider `CC[C@H]1CN(C(C)c2ccc(C3CC3)nc2)[C@H](CC)CN1c1c(F)c(=O)n(C)n2cc(CC#N)nc12` (single isomer, unassigned) [Compound A73b], for which the IC50 in test [1] turned out to be 832 nM; in test [2], 302 nM.
For the compound `CC[C@@H]1CN(c2c(C#N)c(=O)n(C)n3cc(CC#N)nc23)[C@@H](C)CN1C(C)c1ccc(C2CC2)nc1` (single isomer, unassigned) [Compound A74a], the IC50 turned out to be 682 nM in test [1] and 166 nM in test [2].
For `CC[C@@H]1CN(c2c(C#N)c(=O)n(C)n3cc(CC#N)nc23)[C@@H](C)CN1C(C)c1ccc(C2CC2)nc1` (single isomer, unassigned) [Compound A74b], in that order: 1430 nM and 1550 nM.
With `CC[C@H]1CN(C(C)c2ccc(C3CC3)nc2)[C@H](CC)CN1c1c(C#N)c(=O)n(C)n2cc(CC#N)nc12` (single isomer, unassigned) [Compound A75a], the IC50 turned out to be 420 nM in test [1] and 276 nM in test [2].
For `CC[C@H]1CN(C(C)c2ccc(C3CC3)nc2)[C@H](CC)CN1c1c(C#N)c(=O)n(C)n2cc(CC#N)nc12` (single isomer, unassigned) [Compound A75b], in that order: 1300 nM and 1050 nM.
Turning to `CCC(c1ccc(C(F)(F)F)cc1)N1C[C@H](CC)N(c2cc(=O)n(C)n3cc(CC#N)nc23)C[C@H]1CC` (single isomer, unassigned) [Compound A77a], the IC50 in test [1] was determined as 102 nM; in test [2], 255 nM.
Consider `CCC(c1ccc(C(F)(F)F)cc1)N1C[C@H](CC)N(c2cc(=O)n(C)n3cc(CC#N)nc23)C[C@H]1CC` (single isomer, unassigned) [Compound A77b], for which the values for the IC50 in test [1] and in test [2] were 454 nM and 1940 nM, respectively.
The like results for `CC[C@H]1CN(C(C)c2ccc3nc(C)sc3n2)[C@H](CC)CN1c1c(F)c(=O)n(C)n2cc(CC#N)nc12` (single isomer, unassigned) [Compound A82a] were, in that order, 26 nM and 15 nM.
For `CC[C@H]1CN(C(C)c2ccc3nc(C)sc3n2)[C@H](CC)CN1c1c(F)c(=O)n(C)n2cc(CC#N)nc12` (single isomer, unassigned) [Compound A82b], the IC50 amounted to 233 nM in test [1] and 1050 nM in test [2].
In the case of `CC[C@@H]1CN(c2cc(=O)n(C)n3cc(CC#N)nc23)[C@@H](C)CN1C(C)c1ccc2nc(C)sc2n1` (single isomer, unassigned) [Compound A84a], the figures for the IC50 in test [1] and in test [2] were 169 nM and 52 nM, respectively.
For `CC[C@@H]1CN(c2cc(=O)n(C)n3cc(CC#N)nc23)[C@@H](C)CN1C(C)c1ccc2nc(C)sc2n1` (single isomer, unassigned) [Compound A84b], in that order: 3310 nM and 5090 nM.
Turning to `CCC(c1ccc(C2CC2)nc1)N1C[C@H](CC)N(c2cc(=O)n(C)n3cc(CC#N)nc23)C[C@H]1CC` (single isomer, unassigned) [Compound A89a], the IC50 in test [1] amounted to 171 nM; in test [2], 73 nM.
In the case of `CCC(c1ccc(C2CC2)nc1)N1C[C@H](CC)N(c2cc(=O)n(C)n3cc(CC#N)nc23)C[C@H]1CC` (single isomer, unassigned) [Compound A89b], the results for the IC50 in test [1] and in test [2] were 1520 nM and 1010 nM, respectively.
Consider `CC[C@H]1CN(C(C)c2ccc(C(C)(F)F)nc2)[C@H](CC)CN1c1cc(=O)n(C)n2cc(CC#N)nc12` (single isomer, unassigned) [Compound A90a], for which the values for the IC50 in test [1] and in test [2] were 121 nM and 25 nM, respectively.
For `CC[C@H]1CN(C(C)c2ccc(C(C)(F)F)nc2)[C@H](CC)CN1c1cc(=O)n(C)n2cc(CC#N)nc12` (single isomer, unassigned) [Compound A90b], the IC50 in test [1] came to 386 nM; in test [2], 802 nM.
For `CC[C@H]1CN(C(C)c2ccc(C(F)(F)F)cc2)[C@H](CC)CN1c1cc(=O)n(C)n2cc(CC#N)nc12` (single isomer, unassigned) [Compound A91a], the IC50 in test [1] worked out at 155 nM; in test [2], 73 nM.
On to `CC[C@H]1CN(C(C)c2ccc(C(F)(F)F)cc2)[C@H](CC)CN1c1cc(=O)n(C)n2cc(CC#N)nc12` (single isomer, unassigned) [Compound A91b], for which the IC50 in test [1] amounted to 319 nM; in test [2] it was 1430 nM.
As for `CC[C@H]1CN(C(C)c2ccc(C(F)(F)F)cc2F)[C@H](CC)CN1c1cc(=O)n(C)n2cc(CC#N)nc12` (single isomer, unassigned) [Compound A92a], the figures for the IC50 in test [1] and in test [2] were 87 nM and 52 nM, respectively.
Take `CC[C@H]1CN(C(C)c2ccc(C(F)(F)F)cc2F)[C@H](CC)CN1c1cc(=O)n(C)n2cc(CC#N)nc12` (single isomer, unassigned) [Compound A92b]: the IC50 stood at 803 nM in test [1] and 1610 nM in test [2].
As for `[2H]C([2H])([2H])n1c(=O)cc(N2C[C@@H](CC)N(C(C)c3ccc4nc(C)sc4c3)C[C@@H]2CC)c2nc(CC#N)cn21` (single isomer, unassigned) [Compound A94a], the IC50 amounted to 108 nM in test [1] and 24 nM in test [2].
As to `[2H]C([2H])([2H])n1c(=O)cc(N2C[C@@H](CC)N(C(C)c3ccc4nc(C)sc4c3)C[C@@H]2CC)c2nc(CC#N)cn21` (single isomer, unassigned) [Compound A94b], the IC50 turned out to be 3790 nM in test [1] and 1150 nM in test [2].
As to `[2H]C([2H])([2H])C(c1ccc2nc(C)sc2c1)N1C[C@H](CC)N(c2cc(=O)n(C([2H])([2H])[2H])n3cc(CC#N)nc23)C[C@H]1CC` (single isomer, unassigned) [Compound A95a], the IC50 in test [1] was 101 nM; in test [2], 27 nM.
Regarding `[2H]C([2H])([2H])C(c1ccc2nc(C)sc2c1)N1C[C@H](CC)N(c2cc(=O)n(C([2H])([2H])[2H])n3cc(CC#N)nc23)C[C@H]1CC` (single isomer, unassigned) [Compound A95b], the figures for the IC50 in test [1] and in test [2] were 1530 nM and 1020 nM, respectively.
`[2H]C([2H])([2H])c1nc2ccc(C(C)N3C[C@H](CC)N(c4cc(=O)n(C)n5cc(CC#N)nc45)C[C@H]3CC)cc2s1` (single isomer, unassigned) [Compound A96a]: the IC50 in test [1] came out at 54 nM; in test [2], 33 nM.
For `[2H]C([2H])([2H])c1nc2ccc(C(C)N3C[C@H](CC)N(c4cc(=O)n(C)n5cc(CC#N)nc45)C[C@H]3CC)cc2s1` (single isomer, unassigned) [Compound A96b], in that order: 2080 nM and 861 nM.
